Ends that are not written are not given here. Peptide text beside a SMILES is read from it. * marks the point of attachment. Biotin = O=C1N[C@H]2[C@H](CS[C@H]2CCCCC(=O)*)N1

What all share (assay): G' assay (10 uM PL peptide), results of TABLE 7 and TABLE 12
Holding throughout (format): binding

Assay [1] concerns the target T1, PDZ protein (GST-PDZ fusion) (Homo sapiens, UniProt Q8TEW0).
T1 construct: made in house; host or cells: E. coli (DH5alpha, BL21 or JM109)
The conditions noted are these: PDZ PAR3, PDZ Domain 3. The method, boiled down: (§1)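 Biotin-PL peptide (N-term label), 10 uM vs GST-PDZ; protein 5 ug/ml by default. A450 nm binned: 1 = 0-1, 2 = 1-2, 3 = 2-3, 4 = 3-4, 5 = >4 on >2 repeats, 0 = no binding.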

For assay [2], the target named is T2, PDZ protein (GST-PDZ fusion) (Homo sapiens, UniProt Q96JY6).
T2 construct: made in house; host or cells: E. coli (DH5alpha, BL21 or JM109)
T2 sequence (Q96JY6 1-352): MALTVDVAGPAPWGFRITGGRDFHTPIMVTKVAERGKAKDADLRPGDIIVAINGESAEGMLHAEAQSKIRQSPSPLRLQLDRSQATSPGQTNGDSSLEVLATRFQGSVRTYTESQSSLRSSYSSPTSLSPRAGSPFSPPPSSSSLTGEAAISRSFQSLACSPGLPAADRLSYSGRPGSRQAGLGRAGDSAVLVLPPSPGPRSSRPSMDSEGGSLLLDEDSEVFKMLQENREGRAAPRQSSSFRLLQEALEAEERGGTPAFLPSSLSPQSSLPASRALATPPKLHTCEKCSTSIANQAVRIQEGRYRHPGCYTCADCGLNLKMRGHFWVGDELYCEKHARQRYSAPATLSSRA
The conditions noted are these: PDZ LIM-Mystique, PDZ Domain 1. Summed up: as §1

The target of assay [3] is T3, PDZ protein (GST-PDZ fusion) (Homo sapiens, UniProt O15085).
T3 construct: made in house; host or cells: E. coli (DH5alpha, BL21 or JM109)
The conditions noted are these: PDZ KIAA0380, PDZ Domain 1. Summed up:
as §1

Assay [4] deals with T4, PDZ protein (GST-PDZ fusion) (Homo sapiens, UniProt Q9BYB0).
T4 construct: made in house; host or cells: E. coli (DH5alpha, BL21 or JM109)
The conditions noted are these: PDZ SHANK3, PDZ Domain 1. Summed up: as §1

Assay [5] deals with T5, PDZ protein (GST-PDZ fusion) (Homo sapiens, UniProt Q9HD26).
T5 construct: made in house; host or cells: E. coli (DH5alpha, BL21 or JM109)
The conditions noted are these: PDZ PIST, PDZ Domain 1. The method, boiled down:
as §1

T3 sequence (O15085 whole entry, the tested form may be a part): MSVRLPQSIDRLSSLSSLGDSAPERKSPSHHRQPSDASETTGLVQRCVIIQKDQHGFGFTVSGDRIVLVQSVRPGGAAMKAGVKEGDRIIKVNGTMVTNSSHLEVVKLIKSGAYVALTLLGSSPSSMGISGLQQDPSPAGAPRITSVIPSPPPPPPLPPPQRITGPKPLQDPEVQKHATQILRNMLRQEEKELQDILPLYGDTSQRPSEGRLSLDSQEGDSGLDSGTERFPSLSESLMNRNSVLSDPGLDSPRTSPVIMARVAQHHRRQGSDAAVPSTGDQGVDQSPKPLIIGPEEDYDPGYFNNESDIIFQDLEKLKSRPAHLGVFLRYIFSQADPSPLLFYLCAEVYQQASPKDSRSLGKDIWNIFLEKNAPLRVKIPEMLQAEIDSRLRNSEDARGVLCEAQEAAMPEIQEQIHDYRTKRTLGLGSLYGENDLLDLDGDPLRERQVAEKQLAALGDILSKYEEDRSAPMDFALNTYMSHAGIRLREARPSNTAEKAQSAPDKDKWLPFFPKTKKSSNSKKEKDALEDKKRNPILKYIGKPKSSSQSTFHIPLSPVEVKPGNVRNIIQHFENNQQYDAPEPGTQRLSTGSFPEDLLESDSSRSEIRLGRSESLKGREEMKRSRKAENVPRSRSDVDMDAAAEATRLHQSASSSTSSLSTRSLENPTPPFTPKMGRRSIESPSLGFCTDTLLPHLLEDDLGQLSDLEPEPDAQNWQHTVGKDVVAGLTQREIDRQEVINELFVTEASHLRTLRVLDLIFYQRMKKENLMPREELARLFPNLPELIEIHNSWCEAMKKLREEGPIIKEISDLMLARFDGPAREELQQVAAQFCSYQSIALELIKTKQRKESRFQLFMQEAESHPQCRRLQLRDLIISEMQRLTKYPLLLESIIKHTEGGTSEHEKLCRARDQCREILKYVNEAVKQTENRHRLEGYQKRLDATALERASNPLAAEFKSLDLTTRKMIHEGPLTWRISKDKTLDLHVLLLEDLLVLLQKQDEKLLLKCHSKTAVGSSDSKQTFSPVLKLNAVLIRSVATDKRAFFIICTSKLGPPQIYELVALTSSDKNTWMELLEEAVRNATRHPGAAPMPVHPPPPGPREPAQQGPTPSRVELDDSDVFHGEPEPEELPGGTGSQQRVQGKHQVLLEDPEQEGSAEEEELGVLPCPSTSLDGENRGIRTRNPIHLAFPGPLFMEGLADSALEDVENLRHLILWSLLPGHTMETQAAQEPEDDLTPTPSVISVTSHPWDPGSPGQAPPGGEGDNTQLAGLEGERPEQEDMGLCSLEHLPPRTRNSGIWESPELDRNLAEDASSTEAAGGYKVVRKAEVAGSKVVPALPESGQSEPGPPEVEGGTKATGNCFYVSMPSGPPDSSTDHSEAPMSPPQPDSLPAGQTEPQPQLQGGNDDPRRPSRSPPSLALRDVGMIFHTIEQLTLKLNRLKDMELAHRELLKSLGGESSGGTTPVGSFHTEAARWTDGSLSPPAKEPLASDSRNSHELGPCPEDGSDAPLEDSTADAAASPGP
T1 sequence (Q8TEW0 whole entry, the tested form may be a part): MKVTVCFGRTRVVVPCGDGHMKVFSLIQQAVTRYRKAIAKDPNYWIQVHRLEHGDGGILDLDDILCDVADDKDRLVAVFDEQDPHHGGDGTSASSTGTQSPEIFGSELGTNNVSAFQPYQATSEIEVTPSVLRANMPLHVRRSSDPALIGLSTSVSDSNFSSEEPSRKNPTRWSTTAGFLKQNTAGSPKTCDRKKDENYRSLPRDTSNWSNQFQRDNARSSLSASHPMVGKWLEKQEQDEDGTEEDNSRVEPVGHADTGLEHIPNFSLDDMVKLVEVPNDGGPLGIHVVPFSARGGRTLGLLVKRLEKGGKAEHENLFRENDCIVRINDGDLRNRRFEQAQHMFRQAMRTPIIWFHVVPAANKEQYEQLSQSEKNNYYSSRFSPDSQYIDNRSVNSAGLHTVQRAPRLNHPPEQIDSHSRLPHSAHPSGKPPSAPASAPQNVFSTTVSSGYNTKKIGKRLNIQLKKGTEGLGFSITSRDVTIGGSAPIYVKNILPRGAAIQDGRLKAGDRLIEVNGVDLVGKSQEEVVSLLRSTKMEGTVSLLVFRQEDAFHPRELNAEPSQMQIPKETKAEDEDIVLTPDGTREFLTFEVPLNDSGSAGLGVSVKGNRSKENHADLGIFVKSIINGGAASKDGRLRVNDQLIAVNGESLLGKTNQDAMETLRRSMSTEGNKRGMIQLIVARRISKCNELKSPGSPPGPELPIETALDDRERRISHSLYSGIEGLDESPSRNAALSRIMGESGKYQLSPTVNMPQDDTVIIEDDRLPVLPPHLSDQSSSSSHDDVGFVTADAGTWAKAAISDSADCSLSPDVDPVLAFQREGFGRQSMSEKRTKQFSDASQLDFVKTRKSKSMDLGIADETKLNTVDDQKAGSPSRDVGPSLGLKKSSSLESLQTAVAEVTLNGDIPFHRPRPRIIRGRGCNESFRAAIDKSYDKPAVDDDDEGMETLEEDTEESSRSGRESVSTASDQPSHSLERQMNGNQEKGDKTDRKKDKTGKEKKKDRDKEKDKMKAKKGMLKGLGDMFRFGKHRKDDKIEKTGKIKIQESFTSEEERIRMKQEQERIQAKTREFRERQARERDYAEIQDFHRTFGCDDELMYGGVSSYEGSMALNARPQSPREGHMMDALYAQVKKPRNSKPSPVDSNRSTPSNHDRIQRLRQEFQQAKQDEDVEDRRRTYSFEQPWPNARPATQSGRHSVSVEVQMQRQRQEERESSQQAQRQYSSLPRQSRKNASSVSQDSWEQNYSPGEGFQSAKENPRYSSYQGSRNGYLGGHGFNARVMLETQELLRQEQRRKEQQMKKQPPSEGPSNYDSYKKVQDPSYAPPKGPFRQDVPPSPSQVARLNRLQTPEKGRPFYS
T4 sequence (Q9BYB0 whole entry, the tested form may be a part): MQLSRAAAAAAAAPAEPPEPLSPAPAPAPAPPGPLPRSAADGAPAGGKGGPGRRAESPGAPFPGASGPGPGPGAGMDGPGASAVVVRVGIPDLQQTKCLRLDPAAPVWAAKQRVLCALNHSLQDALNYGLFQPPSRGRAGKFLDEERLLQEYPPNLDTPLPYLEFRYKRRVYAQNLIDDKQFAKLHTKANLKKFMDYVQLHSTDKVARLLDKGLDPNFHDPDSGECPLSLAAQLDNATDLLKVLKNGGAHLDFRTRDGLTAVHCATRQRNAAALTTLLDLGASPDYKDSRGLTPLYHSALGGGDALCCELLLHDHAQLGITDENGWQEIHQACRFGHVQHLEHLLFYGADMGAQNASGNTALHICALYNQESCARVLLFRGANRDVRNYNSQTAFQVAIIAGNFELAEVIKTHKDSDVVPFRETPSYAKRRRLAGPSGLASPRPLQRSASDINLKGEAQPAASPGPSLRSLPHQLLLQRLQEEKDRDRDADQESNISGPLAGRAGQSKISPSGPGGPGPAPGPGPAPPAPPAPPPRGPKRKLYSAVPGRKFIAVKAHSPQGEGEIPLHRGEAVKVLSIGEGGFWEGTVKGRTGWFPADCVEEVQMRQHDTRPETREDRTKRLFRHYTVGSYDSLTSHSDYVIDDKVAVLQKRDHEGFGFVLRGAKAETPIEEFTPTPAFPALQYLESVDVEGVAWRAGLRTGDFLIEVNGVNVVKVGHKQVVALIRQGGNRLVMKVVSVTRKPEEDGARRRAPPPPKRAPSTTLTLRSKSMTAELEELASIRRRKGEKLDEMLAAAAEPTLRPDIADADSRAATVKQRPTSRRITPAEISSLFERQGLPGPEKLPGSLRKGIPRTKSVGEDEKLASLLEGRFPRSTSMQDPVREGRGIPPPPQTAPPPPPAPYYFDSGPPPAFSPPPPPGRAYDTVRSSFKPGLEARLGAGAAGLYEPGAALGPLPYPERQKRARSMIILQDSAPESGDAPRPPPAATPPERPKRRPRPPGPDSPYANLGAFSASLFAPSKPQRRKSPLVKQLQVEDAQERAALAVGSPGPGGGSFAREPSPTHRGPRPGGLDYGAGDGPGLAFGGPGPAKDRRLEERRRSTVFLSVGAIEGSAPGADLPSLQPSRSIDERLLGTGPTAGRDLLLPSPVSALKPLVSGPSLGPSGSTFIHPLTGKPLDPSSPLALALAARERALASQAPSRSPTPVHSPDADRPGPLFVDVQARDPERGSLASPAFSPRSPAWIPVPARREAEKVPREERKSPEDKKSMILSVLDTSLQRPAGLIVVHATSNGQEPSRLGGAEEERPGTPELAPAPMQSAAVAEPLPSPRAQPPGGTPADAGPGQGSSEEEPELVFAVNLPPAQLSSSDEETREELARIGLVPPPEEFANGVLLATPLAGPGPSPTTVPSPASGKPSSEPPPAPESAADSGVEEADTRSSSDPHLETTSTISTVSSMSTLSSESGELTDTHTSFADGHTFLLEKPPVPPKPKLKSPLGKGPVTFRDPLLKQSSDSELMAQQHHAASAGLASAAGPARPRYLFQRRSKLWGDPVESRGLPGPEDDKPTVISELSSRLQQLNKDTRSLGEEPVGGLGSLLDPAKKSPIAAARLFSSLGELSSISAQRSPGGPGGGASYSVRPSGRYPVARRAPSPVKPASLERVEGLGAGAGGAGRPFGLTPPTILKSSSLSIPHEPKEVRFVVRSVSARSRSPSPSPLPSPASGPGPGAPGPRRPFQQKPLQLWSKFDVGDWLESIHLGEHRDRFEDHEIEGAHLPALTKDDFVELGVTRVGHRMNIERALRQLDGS

Consider “PYSELNYETSHYPASPDSWV (Biotin-PYSELNYETSHYPASPDSWV) [catenin - delta 2]”, for which the Classification in assay [1] was 1 (A450 nm 0-1); in assay [2] it was 5 (A450 nm of 4 more than 2× repeated).

As for `CC(C)C[C@H](NC(=O)[C@H](C)NC(=O)[C@@H](NC(=O)[C@H](CCC(=O)O)NC(=O)[C@H](CCCNC(=N)N)NC(=O)[C@H](CCCNC(=N)N)NC(=O)CNC(=O)[C@H](CCC(N)=O)NC(=O)[C@H](CC(C)C)NC(=O)[C@H](CCCNC(=N)N)NC(=O)CNC(=O)CNC(=O)[C@H](CCCNC(=N)N)NC(=O)[C@H](C)NC(=O)[C@H](CO)NC(=O)[C@H](CCCNC(=N)N)NC(=O)CNC(=O)CNC(=O)[C@H](C)NC(=O)[C@H](C)NC(=O)CCCC[C@@H]1SC[C@@H]2NC(=O)N[C@@H]21)[C@@H](C)O)C(=O)O` [HPV E6 33 (modified)] (Biotin-AAGGRSARGGRLQGRRETAL-OH; C-terminus assumed), the values for the Classification in assay [3] and in assay [4] were 1 (A450 nm 0-1) and 2 (A450 nm 1-2), respectively.

As to `CC[C@H](C)[C@H](NC(=O)[C@H](CO)NC(=O)[C@H](CCC(=O)O)NC(=O)[C@H](Cc1ccc(O)cc1)NC(=O)[C@H](CC(=O)O)NC(=O)[C@H](CC(N)=O)NC(=O)[C@H](CCC(=O)O)NC(=O)[C@H](CCCCN)NC(=O)CCCC[C@@H]1SC[C@@H]2NC(=O)N[C@@H]21)C(=O)N[C@@H](CO)C(=O)N[C@@H](CC(=O)O)C(=O)N[C@@H](CC(C)C)C(=O)N[C@@H](CCC(N)=O)C(=O)N[C@@H](CCC(N)=O)C(=O)NCC(=O)N[C@@H](CCCNC(=N)N)C(=O)N[C@@H](CC(=O)O)C(=O)N[C@H](C(=O)N[C@H](C(=O)N[C@@H](CCCNC(=N)N)C(=O)N[C@@H](CC(C)C)C(=O)O)[C@@H](C)O)[C@@H](C)CC` [PAG] (Biotin-KENDYESISDLQQGRDITRL-OH; C-terminus assumed), the values for the Classification in assay [5] and in assay [4] were 1 (A450 nm 0-1) and 2 (A450 nm 1-2), respectively.

In the case of `CC[C@H](C)[C@H](NC(=O)[C@H](CCC(N)=O)NC(=O)[C@@H](NC(=O)[C@H](Cc1c[nH]cn1)NC(=O)[C@H](CCC(N)=O)NC(=O)[C@H](CC(=O)O)NC(=O)[C@H](CCC(=O)O)NC(=O)[C@H](CC(=O)O)NC(=O)[C@H](Cc1ccccc1)NC(=O)[C@@H]1CCCN1C(=O)[C@H](CCC(=O)O)NC(=O)[C@H](CC(N)=O)NC(=O)[C@H](CCC(=O)O)NC(=O)[C@@H]1CCCN1C(=O)[C@H](CC(=O)O)NC(=O)[C@H](CO)NC(=O)[C@H](CC(=O)O)NC(=O)CCCC[C@@H]1SC[C@@H]2NC(=O)N[C@@H]21)[C@@H](C)O)C(=O)N[C@H](C(=O)N[C@@H](CCCCN)C(=O)N[C@H](C(=O)O)C(C)C)[C@@H](C)O` [PTEN], the Classification in assay [5] is 1 (A450 nm 0-1).

For the compound `CC[C@H](C)[C@H](NC(=O)[C@H](CCCCN)NC(=O)[C@@H](NC(=O)[C@H](CO)NC(=O)[C@@H]1CCCN1C(=O)[C@H](Cc1ccccc1)NC(=O)[C@@H](NC(=O)[C@@H](NC(=O)[C@H](CCCNC(=N)N)NC(=O)[C@H](CCC(=O)O)NC(=O)[C@H](CC(C)C)NC(=O)[C@H](CC(C)C)NC(=O)[C@H](CC(C)C)NC(=O)[C@@H](NC(=O)CNC(=O)[C@@H](NC(=O)CCCC[C@@H]1SC[C@@H]2NC(=O)N[C@@H]21)C(C)C)[C@@H](C)O)C(C)C)[C@@H](C)CC)C(C)C)C(=O)N[C@@H](C)C(=O)N[C@H](C(=O)N[C@@H](CC(C)C)C(=O)N[C@H](C(=O)O)C(C)C)[C@@H](C)O` [Adenovirus E4 Type9], in assay [5] (PL peptide 10 uM), the Classification is given as 1 (A450 nm 0-1).

On to “RNIEEVYVGGKQVVPFSSSV (Biotin-RNIEEVYVGGKQVVPFSSSV) [Nedasin (s-form)]”, for which the Classification in assay [3] was 1 (A450 nm 0-1).

In the case of `CC[C@H](C)[C@H](NC(=O)[C@H](C)NC(=O)[C@H](CC(C)C)NC(=O)[C@H](Cc1c[nH]c2ccccc12)NC(=O)[C@H](Cc1c[nH]cn1)NC(=O)[C@H](CCC(N)=O)NC(=O)[C@H](CC(C)C)NC(=O)[C@H](CCC(N)=O)NC(=O)[C@H](Cc1ccccc1)NC(=O)[C@H](CCC(N)=O)NC(=O)[C@H](CCCNC(=N)N)NC(=O)[C@@H](NC(=O)[C@H](CC(=O)O)NC(=O)[C@H](CCCNC(=N)N)NC(=O)[C@H](CCC(N)=O)NC(=O)[C@H](C)NC(=O)[C@@H](NC(=O)[C@H](CC(C)C)NC(=O)[C@H](Cc1c[nH]cn1)NC(=O)[C@H](Cc1c[nH]cn1)NC(=O)CCCC[C@@H]1SC[C@@H]2NC(=O)N[C@@H]21)C(C)C)[C@@H](C)CC)C(=O)O` [noradrenaline transporter] (Biotin-HHLVAQRDIRQFQLQHWLAI-OH; C-terminus assumed), the Classification in assay [1] was 4 (A450 nm 3-4); in assay [3] it was 1 (A450 nm 0-1).

On to “A2AA_HUMAN (modified) (Biotin-HDFRRAFKKILARGDRKRIV; not fully specified)”, for which the Classification in assay [1] is recorded as 2 (A450 nm 1-2); in assay [2], 1 (A450 nm 0-1).

Take “GPVPGEPAKPKTSAHHATFV (Biotin-GPVPGEPAKPKTSAHHATFV)”: in assay [5], the Classification is recorded as 1 (A450 nm 0-1).

On to “ARHRVTSYTSSSVNVSSNL (Biotin-ARHRVTSYTSSSVNVSSNL) [IL-8RB]”, for which the Classification in assay [3] is given as 1 (A450 nm 0-1).

As for `CC(C)C[C@H](NC(=O)CNC(=O)[C@@H](NC(=O)[C@H](CO)NC(=O)[C@H](CC(N)=O)NC(=O)[C@H](Cc1ccccc1)NC(=O)CNC(=O)[C@H](C)NC(=O)[C@H](C)NC(=O)[C@H](Cc1ccccc1)NC(=O)[C@@H](NC(=O)CCCC[C@@H]1SC[C@@H]2NC(=O)N[C@@H]21)[C@@H](C)O)[C@@H](C)O)C(=O)N1CCC[C@H]1C(=O)N[C@@H](Cc1c[nH]cn1)C(=O)N[C@@H](CO)C(=O)N[C@H](C(=O)N[C@H](C(=O)N[C@@H](CCCNC(=N)N)C(=O)N[C@H](C(=O)O)C(C)C)[C@@H](C)O)[C@@H](C)O` [Neuroligin] (Biotin-TFAAGFNSTGLPHSTTRV-OH; C-terminus assumed), the Classification in assay [4] is listed as 3 (A450 nm 2-3).

`CC(C)C[C@H](NC(=O)[C@H](CC(C)C)NC(=O)[C@@H](NC(=O)[C@H](CC(=O)O)NC(=O)CCCC[C@@H]1SC[C@@H]2NC(=O)N[C@@H]21)[C@@H](C)O)C(=O)N[C@@H](CC(C)C)C(=O)N[C@H](C(=O)N[C@@H](CCC(=O)O)C(=O)N[C@@H](CC(N)=O)C(=O)N[C@@H](CCC(=O)O)C(=O)NCC(=O)N[C@@H](CC(=O)O)C(=O)N[C@@H](CCCCN)C(=O)N[C@H](C(=O)N[C@@H](CCC(=O)O)C(=O)N[C@@H](CCC(=O)O)C(=O)N[C@@H](CCC(N)=O)C(=O)N[C@H](C(=O)N[C@@H](CO)C(=O)N[C@@H](Cc1ccc(O)cc1)C(=O)N[C@H](C(=O)O)C(C)C)C(C)C)[C@@H](C)O)[C@@H](C)O` [5H2B_HUMAN] (Biotin-DTLLLTENEGDKTEEQVSYV-OH; C-terminus assumed): the Classification in assay [5] is recorded as 1 (A450 nm 0-1).

As to `CC[C@H](C)[C@H](NC(=O)CNC(=O)[C@H](CO)NC(=O)[C@H](Cc1ccccc1)NC(=O)[C@@H](NC(=O)[C@H](CS)NC(=O)CNC(=O)CNC(=O)[C@H](C)NC(=O)[C@@H]1CCCN1C(=O)[C@@H](NC(=O)[C@@H]1CCCN1C(=O)CCCC[C@@H]1SC[C@@H]2NC(=O)N[C@@H]21)[C@@H](C)CC)[C@@H](C)O)C(=O)N[C@@H](Cc1ccccc1)C(=O)N1CCC[C@H]1C(=O)N[C@H](C(=O)N[C@@H](CC(C)C)C(=O)N[C@H](C(=O)N[C@@H](CO)C(=O)N1CCC[C@H]1C(=O)N[C@@H](CC(C)C)C(=O)O)[C@@H](C)O)[C@@H](C)O` [KIA 1481] (Biotin-PIPAGGCTFSGIFPTLTSPL-OH; C-terminus assumed), in assay [4], the Classification is given as 3 (A450 nm 2-3).

As for “VHDAESSDEDGYDWGPATDL (Biotin-VHDAESSDEDGYDWGPATDL) [zona occludens 3 (ZO-3)]”, the values for the Classification in assay [1] and in assay [2] were 1 (A450 nm 0-1) and 2 (A450 nm 1-2), respectively.

Take `CC(C)C[C@H](NC(=O)[C@H](CCCNC(=N)N)NC(=O)CNC(=O)CNC(=O)[C@H](CCCNC(=N)N)NC(=O)[C@H](C)NC(=O)[C@@H]1CCCN1C(=O)[C@H](CCCNC(=N)N)NC(=O)CNC(=O)CNC(=O)[C@@H](NC(=O)[C@H](C)NC(=O)CCCC[C@@H]1SC[C@@H]2NC(=O)N[C@@H]21)C(C)C)C(=O)N[C@@H](CCC(N)=O)C(=O)NCC(=O)N[C@@H](CCCNC(=N)N)C(=O)N[C@@H](CCCNC(=N)N)C(=O)N[C@@H](CCC(N)=O)C(=O)N[C@H](C(=O)N[C@@H](CCC(N)=O)C(=O)N[C@H](C(=O)O)C(C)C)[C@@H](C)O` [HPV E6 58 (modified)] (Biotin-AVGGRPARGGRLQGRRQTQV-OH; C-terminus assumed): in assay [3], the Classification is 1 (A450 nm 0-1).

Regarding “LASKSAEEGKQIPDSLSTDL (Biotin-LASKSAEEGKQIPDSLSTDL) [Dock2]”, the Classification in assay [2] and in assay [4] was 1 (A450 nm 0-1) throughout.

Source of the values: patent US20050282743A1, “Molecular interactions in cells” (Arbor Vita Corporation, priority 2001, published 2005).
